Reference: article PMC8284461, “Piperidine-4-Carboxamides Target DNA Gyrase in Mycobacterium abscessus” (Antimicrobial Agents and Chemotherapy, 2021)
≈ marks a conversion by molar mass, not a printed value.

Key:
[1] = Kinetic solubility; assay type: physicochemical
Protocol: (§1) Kinetic solubility, parallel artificial membrane permeability assay (PAMPA) permeability, and stability in the mouse liver microsome assay were performed by BioDuro (Shanghai, China) according to standard protocols.

[2] = test system: M. abscessus subsp. abscessus ATCC 19977; test: MIC, broth microdilution; assay type: cell-based, Mycobacterium abscessus; settings: Mycobacteroides abscessus, ATCC19977, 72 h; abscessus ATCC 19977 wild type; 90% growth inhibition, 3 days
Protocol: (§2) MIC was determined using the broth microdilution method in 96-well plates as described previously ([47]). Briefly, a 10-point 2-fold serial dilution of compounds was performed in 96-well plates (Costar 3370; Corning, USA) starting at twice the desired highest concentration. […] One hundred microliters of the bacterial suspension was seeded onto the 96-well plates containing 100 μl of the serially diluted compounds to give a final volume of 200 μl in each well with the final OD600 of 0.005. The plates were sealed with parafilm, placed onto wet paper towels in a lock-lock box and incubated for 3 days at 37°C with orbital shaking at 90 rpm. […] Absorbance values at day 3 were subtracted from the day 0 readout. Percent growth inhibition was calculated by dividing the absolute absorbance value of treated cells with untreated control and multiplying by 100. CLR was included in all MIC experiments as a positive control to monitor assay reproducibility. MIC was defined as 90% of growth inhibition relative to untreated controls.

[3] = test system: M. abscessus subsp. abscessus Bamboo; test: MIC, broth microdilution; assay type: cell-based, Mycobacterium abscessus; settings: Mycobacteroides abscessus, 72 h; abscessus Bamboo wild type; 90% growth inhibition, 3 days
Protocol: as §2

[4] = test system: M. abscessus subsp. abscessus M199; test: MIC, broth microdilution; assay type: cell-based, Mycobacterium abscessus; settings: Mycobacteroides abscessus, 72 h, 90% growth inhibition, 3 days
Protocol: as §2

[5] = test system: M. abscessus subsp. bolletii M506; test: MIC, broth microdilution; assay type: cell-based, Mycobacterium abscessus; settings: Mycobacteroides abscessus, 72 h, 90% growth inhibition, 3 days
Protocol: as §2

[6] = test system: M. abscessus subsp. massiliense M111; test: MIC, broth microdilution; assay type: cell-based, Mycobacterium abscessus; settings: Mycobacteroides abscessus, 72 h, 90% growth inhibition, 3 days
Protocol: as §2

[7] = test system: M. abscessus subsp. abscessus M9; test: MIC, broth microdilution; assay type: cell-based, Mycobacterium abscessus; settings: Mycobacteroides abscessus, 72 h, 90% growth inhibition, 3 days
Protocol: as §2

[8] = test system: M. abscessus subsp. abscessus M337; test: MIC, broth microdilution; assay type: cell-based, Mycobacterium abscessus; settings: Mycobacteroides abscessus, 72 h, 90% growth inhibition, 3 days
Protocol: as §2

[9] = test system: M. abscessus subsp. bolletii M232; test: MIC, broth microdilution; assay type: cell-based, Mycobacterium abscessus; settings: Mycobacteroides abscessus, 72 h, 90% growth inhibition, 3 days
Protocol: as §2

[10] = test system: M. abscessus subsp. abscessus M404; test: MIC, broth microdilution; assay type: cell-based, Mycobacterium abscessus; settings: Mycobacteroides abscessus, 72 h, 90% growth inhibition, 3 days
Protocol: as §2

[11] = test system: M. abscessus subsp. massiliense CCUG 48898T; test: MIC, broth microdilution; assay type: cell-based, Mycobacterium abscessus; settings: Mycobacteroides abscessus, 72 h, 90% growth inhibition, 3 days
Protocol: as §2

[12] = test system: M. abscessus subsp. bolletii CCUG 50184T; test: MIC, broth microdilution; assay type: cell-based, Mycobacterium abscessus; settings: Mycobacteroides abscessus, 72 h, 90% growth inhibition, 3 days
Protocol: as §2

[13] = test system: M. abscessus subsp. abscessus K21; test: MIC, broth microdilution; assay type: cell-based, Mycobacterium abscessus; settings: Mycobacteroides abscessus, 72 h, 90% growth inhibition, 3 days
Protocol: as §2

[14] = test system: M. abscessus subsp. abscessus M421; test: MIC, broth microdilution; assay type: cell-based, Mycobacterium abscessus; settings: Mycobacteroides abscessus, 72 h, 90% growth inhibition, 3 days
Protocol: as §2

[15] = Plasma stability; assay type: in vitro ADME, rhesus monkeys; settings: monkey plasma, 37°C, 1 μg/ml
Protocol: The plasma stability assays were carried out using plasma from female CD-1 mice, New Zealand white rabbits, rhesus monkeys, and humans containing K2EDTA anticoagulant (Bioreclamation). Stability samples consisted of 5 μl of stock compound solution in 50:50 ACN/water and 95 μl of plasma to a final concentration of 1 μg/ml. The samples were incubated at 37°C with shaking; 10 μl of plasma was removed at each time point and combined with 100 μl of ACN/methanol 50:50 protein precipitation solvent containing internal standard (10 ng/ml verapamil). Chromatography for metabolite identification was performed the same as specified for pharmacokinetic sample analysis. Full scan total ion chromatograms (TIC) of plasma extracts were acquired using a Q Exactive high-resolution mass spectrometer (QE-HRMS) at 70,000 mass resolution. Thermo Fisher Compound Discoverer software was used to assist in identifying the 844-TFM metabolites from the QE-HRMS TIC mass spectrum. Figure S2 in the supplemental material illustrates the extracted ion chromatograms (XIC) of 844-TFM and the metabolites using 5 ppm mass accuracy before and after 12 h of incubation in mouse plasma.

[16] = test system: M. abscessus subsp. abscessus Bamboo 844^r-2 (GyrA D91N); test: MIC, resistant mutant; assay type: cell-based, Mycobacterium abscessus; settings: Mycobacteroides abscessus
[17] = molecular target: GyrA D91N mutant recombinant M. abscessus DNA gyrase (Mycobacteroides abscessus, UniProt B1ME45+B1ME58, D91N); assay type: biochemical, Mycobacterium abscessus; settings: GyrA D91N mutant DNA gyrase, up to 50 μM
GyrA D91N mutant recombinant M. abscessus DNA gyrase, sequence (B1ME58 2-839, stated change not applied): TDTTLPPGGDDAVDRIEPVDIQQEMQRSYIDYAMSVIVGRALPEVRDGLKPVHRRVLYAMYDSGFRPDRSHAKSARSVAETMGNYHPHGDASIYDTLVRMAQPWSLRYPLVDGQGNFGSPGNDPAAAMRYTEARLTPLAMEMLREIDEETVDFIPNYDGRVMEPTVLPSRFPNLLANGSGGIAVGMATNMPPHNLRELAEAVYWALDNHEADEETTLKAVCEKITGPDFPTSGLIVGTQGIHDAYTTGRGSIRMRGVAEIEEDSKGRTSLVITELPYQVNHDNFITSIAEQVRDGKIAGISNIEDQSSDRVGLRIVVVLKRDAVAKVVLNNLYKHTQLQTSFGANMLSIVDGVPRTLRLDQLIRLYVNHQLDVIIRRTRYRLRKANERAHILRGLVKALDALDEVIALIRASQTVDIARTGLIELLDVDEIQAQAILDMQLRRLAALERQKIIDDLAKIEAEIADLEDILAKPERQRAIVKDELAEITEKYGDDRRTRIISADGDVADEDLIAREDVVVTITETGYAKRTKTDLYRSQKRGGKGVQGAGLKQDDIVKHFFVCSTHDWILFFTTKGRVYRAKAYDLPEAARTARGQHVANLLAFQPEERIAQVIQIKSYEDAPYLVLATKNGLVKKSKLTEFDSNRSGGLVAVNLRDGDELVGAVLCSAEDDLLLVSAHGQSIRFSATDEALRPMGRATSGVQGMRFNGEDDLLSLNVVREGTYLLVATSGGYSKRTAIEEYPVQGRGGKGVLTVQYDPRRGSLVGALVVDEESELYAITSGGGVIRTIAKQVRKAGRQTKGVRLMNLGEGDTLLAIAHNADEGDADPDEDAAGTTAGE
GyrA D91N mutant recombinant M. abscessus DNA gyrase, sequence (B1ME45 2-675, stated change not applied): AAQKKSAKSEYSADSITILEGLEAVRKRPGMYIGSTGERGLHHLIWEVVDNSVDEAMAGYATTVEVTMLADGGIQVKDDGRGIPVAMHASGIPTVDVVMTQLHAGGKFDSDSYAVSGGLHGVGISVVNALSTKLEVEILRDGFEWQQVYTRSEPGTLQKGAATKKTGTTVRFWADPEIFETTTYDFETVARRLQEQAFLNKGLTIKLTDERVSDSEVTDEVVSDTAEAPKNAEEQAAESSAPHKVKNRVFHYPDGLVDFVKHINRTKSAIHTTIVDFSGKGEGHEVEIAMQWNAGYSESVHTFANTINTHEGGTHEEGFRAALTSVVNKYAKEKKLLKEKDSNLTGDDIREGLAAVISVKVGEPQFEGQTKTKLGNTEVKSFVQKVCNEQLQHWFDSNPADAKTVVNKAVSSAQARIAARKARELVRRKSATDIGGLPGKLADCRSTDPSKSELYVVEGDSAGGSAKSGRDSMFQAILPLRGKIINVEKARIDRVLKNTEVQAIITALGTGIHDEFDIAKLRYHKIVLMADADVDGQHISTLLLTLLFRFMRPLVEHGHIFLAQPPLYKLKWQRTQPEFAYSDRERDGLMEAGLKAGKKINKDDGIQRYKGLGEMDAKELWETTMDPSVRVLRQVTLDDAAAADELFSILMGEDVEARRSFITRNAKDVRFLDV

[18] = test system: M. abscessus subsp. abscessus Bamboo 844^r-3 (GyrB S473W); test: MIC, resistant mutant; assay type: cell-based, Mycobacterium abscessus; settings: Mycobacteroides abscessus
[19] = Parallel artificial membrane permeability assay (PAMPA); assay type: in vitro ADME
Protocol: as §1

[20] = test system: M. abscessus subsp. abscessus ATCC 19977; test: Time-concentration kill assay, planktonic cultures; assay type: cell-based, Mycobacterium abscessus; settings: 1×, 4×, 8× MIC; CFU after 2 and 3 days
Protocol: At 0, 2, and 3 days, tubes were vortexed, and 20 μl of the cultures was transferred to round-bottom 96-well plates containing 180 μl of phosphate-buffered saline (PBS) (10010023; Thermo Fisher, USA) with 0.025% Tween 80 (PBS/Tween 80) for 10-fold serial dilution. To prevent compound carryover effects, we plated out serially diluted samples onto 7H10 agar supplemented with 0.4% activated charcoal (C9154; Sigma-Aldrich, USA) for all time points as described ([48]). CFU were enumerated after 4 days of incubation at 37°C.

[21] = test system: M. abscessus subsp. abscessus ATCC 19977 MXF^r-2 (GyrA D96N); test: MIC, resistant mutant; assay type: cell-based, Mycobacterium abscessus; settings: Mycobacteroides abscessus, ATCC19977
[22] = test system: M. abscessus complex strains; test: MIC across reference strains and clinical isolates; assay type: cell-based, Mycobacterium abscessus
Protocol: as §2

[23] = test system: M. abscessus subsp. abscessus ATCC 19977 MXF^r-3 (GyrA D96G); test: MIC, resistant mutant; assay type: cell-based, Mycobacterium abscessus; settings: Mycobacteroides abscessus, ATCC19977
[24] = test system: M. abscessus subsp. abscessus ATCC 19977 844-TMF^r-4 (GyrB M474I); test: MIC, resistant mutant; assay type: cell-based, Mycobacterium abscessus; settings: Mycobacteroides abscessus, ATCC19977
[25] = test system: M. abscessus subsp. abscessus ATCC 19977; test: Selection and characterization of spontaneous resistant mutants; assay type: cell-based, Mycobacterium abscessus; settings: ATCC 19977, agar with 8× MIC

COc1ccc2nccc(NC(=O)C3CCN(CCc4ccc(C(F)(F)F)cc4)CC3)c2n1 [844-TFM]
solubility ([1]; pH 7.4): 390 µM (≈ 179 µg/mL) | solubility ([1]; simulated gastric fluid, pH 2): 446 µM (≈ 205 µg/mL) | MIC [2]: 1.5 µM (≈ 0.688 µg/mL) | MIC [3]: 1.5 µM (≈ 0.688 µg/mL) | MIC [4]: 6.3 µM (≈ 2.89 µg/mL) | MIC [5]: 3.1 µM (≈ 1.42 µg/mL) | MIC [6]: 6.3 µM (≈ 2.89 µg/mL) | MIC [7]: 3.1 µM (≈ 1.42 µg/mL) | MIC [8]: 3.1 µM (≈ 1.42 µg/mL) | MIC [9]: 1.6 µM (≈ 0.734 µg/mL) | MIC [10]: 1.6 µM (≈ 0.734 µg/mL) | MIC [11]: 2 µM (≈ 0.917 µg/mL) | MIC [12]: 2 µM (≈ 0.917 µg/mL) | MIC [13]: 3.5 µM (≈ 1.6 µg/mL) | MIC [14]: 1.6 µM (≈ 0.734 µg/mL) | remaining after 24 h [15]: approximately 80% | MIC [16]: > 100 µM | effect on supercoiling activity [17]: No inhibition | MIC [18]: 5 µM (≈ 2.29 µg/mL) | Papp ([19]; PAMPA, pH 7.4, read-out: PAMPA Mean Pe): 2 ×10⁻⁶ cm/s | PAMPA logPe ([19]; pH 7.4): −5.7 | PAMPA logPe ([19]; −5.0 cm/s considered border between high and low permeability): −5.7 cm/s | bactericidal activity in planktonic cultures [20]: bactericidal | MIC [21]: 2 µM (≈ 0.917 µg/mL) | MIC ([22]; Mycobacteroides abscessus, reference strains and clinical isolates of Table 1, read-out: MICs ranging across the M. abscessus complex strains): 1.5 to 6 µM (≈ 0.688 to 2.75 µg/mL) | fold more potent than 844 ([22]; whole-cell potency relative to 844): ~8 fold | MIC [23]: 1 µM (≈ 0.458 µg/mL) | MIC [24]: 6 µM (≈ 2.75 µg/mL) | frequency of spontaneous resistance [25]: 10^−8 /CFU
